pIC50: −log10 of the molar value.
Tests used:
[1] = molecular target: EGFR^L858R/T790M/C797S kinase (Homo sapiens (Human), UniProt P00533, C797S/L858R/T790M); assay: EGFR^L858R/T790M/C797S kinase inhibitory activity experiment; assay type: biochemical; details: in vitro
Procedure: EGFRL^858R/T790M/C797S kinase inhibitory activity experiment: The compounds of the present invention have excellent in-vitro inhibitory activity against EGFR^L858R/T790M/C797S kinase
• Centrifuge (manufacturer: Eppendorf, model: 5430) • Microplate reader (manufacturer: Perkin Elmer, model: Caliper EZ ReaderII) • Echo 550 (manufacturer: Labcyte, model: Echo 550) • Experimental Method • Compound preparation: • A 10 mM storage solution was prepared.
(1) 1×Kinase buffer was prepared.
(2) Preparation of concentration gradient of compound: The tested compound has a test concentration starting from 1 μM, diluted 10 times, with 10 concentrations, and subjected to single-well or multi-well detection. The compound was diluted to a 100% DMSO solution with a final concentration of 100 times in a 384 source plate. […] of the compound at a final concentration of 100 times was transferred to the target plate 384-well-plate using the pipette Echo 550.
(3) A kinase solution with a final concentration of 2.5 times was prepared using 1× Kinase buffer.
(4) 10 μL of the kinase solution with the final concentration of 2.5 times was added to a compound well and a positive control well, respectively; 10 μL of 1×Kinase buffer was added to a negative control well.
(5) Centrifugation was conducted at 1000 rpm for 30 seconds, and the reaction plate was shaken and mixed well, and incubated at a room temperature for 10 minutes.
(6) A mixed solution of ATP with a final concentration of 5/3 times and Kinase substrate 22 was prepared using 1×Kinase buffer.
(7) A mixed solution of 15 μL of ATP with a final concentration of 5/3 times and a substrate was added for initial reaction.
(8) The 384-well-plate was centrifuged at 1000 rpm for 30 seconds, shaken and mixed well, and incubated at a room temperature for 60 minutes.
(9) 30 μL of a termination detection solution was added to stop the kinase reaction. Centrifugation was conducted at 1000 rpm for 30 seconds. Shaking and mixing well were conducted.
(10) The conversion rate was read using Caliper EZ Reader.
where Conversion %_sample is the conversion rate reading of the sample; Conversion %_min: the average value of negative control wells, representing the conversion rate reading of wells without enzyme activity; Conversion %_max: the average value of positive control wells, representing the conversion rate reading of wells without compound inhibition; % Inhibition represents the inhibition rate.
Fitting of Dose-Response Curve
Using the log value of concentration as the X-axis and the percentage inhibition rate as the Y-axis, the dose-response curve was fitted using the log(inhibitor) vs. response —Variable slope of the analysis software GraphPad Prism 5 to obtain the IC50 value of each compound on enzyme activity.

[2] = test system: BaF3-EGFR^L858R/T790M/C797S cells; assay: BaF3 cell proliferation inhibition experiment (CCK-8); assay type: cell-based; details: Ba/F3 EGFR-L858R, 72 hours
Description: BaF3 cell proliferation inhibition experiment: The compounds of the present invention have excellent inhibitory activity against the proliferation of BaF3-EGFR^L858R/T790M/C797S cells
(§1) A. Cell line: BaF3 cells with stable overexpression of wild-type genes are named BaF3-EGFR^WT, and BaF3 cells with stable overexpression of EGFR^L858R/T790M/C797S EGFR^del19/T790M/C797S EGFR^L858R/C797S and EGFR^del19/C797S mutant genes are named BaF3-EGFR^L858R/T790M/C797S BaF3-EGFR^del19/T790M/C797S BaF3-EGFR^L858R/C797S and BaF3-EGFR^del19/C797S cells, respectively. Mediums:
(§2) a) The medium was preheated in a 37° C. water bath.
(§3) b) The cryopreservation tube was taken from the liquid nitrogen tank, quickly placed in a 37° C. water bath, and melted completely within 1 minute.
(§4) c) The cell suspension was transferred to a 15 mL centrifuge tube containing a 10 mL medium and centrifuged at 1000 rpm for 4 minutes.
(§5) d) The supernatant was discarded, the cells were resuspended in a 1 mL medium and transferred to a […] culture dish containing a 10 mL medium, 20% serum and 50 ng/mL EGF were administered to the first-generation medium, and culture was conducted in a 37° C. and 5% CO2 incubator.
(§6) b) The cells in the culture dish were blown evenly with a 5 mL pipette, and 500 μL of the cells were pipetted out to be inoculated into a new […] culture dish and cultured in a 37° C. and 5% CO2 incubator.
(§7) a) The compound to be tested (10 mM stock solution) was diluted with 100% DMSO to 1 mM, and diluted with a culture solution in a 24-well plate to prepare of a working solution of 2 μM concentration.
(§8) b) The 2 μM working solution was diluted with a triple dilution method to obtain working solutions with approximate concentrations of 2 μM, 600 nM, 200 nM, 60 nM, and 20 nM.
(§9) a) The cells at the logarithmic growth phase were centrifuged at 1000 rpm for 4 minutes, resuspended with a medium (containing 10% serum and 50 ng/mL EGF), and counted.
(§10) b) The cells were inoculated into a 96-well plate with a cell density of 4000 cells/well, and placed in a 37° C. and 5% CO2 incubator for culture for 12 hours.
(§11) a) The prepared compound was added to a 96-well plate, with 100 μL per well. The final concentrations were 1 μM, 300 nM, 100 nM, 30 nM, 10 nM, and 0 nM, and the final concentration of DMSO was 0.2%. A medium served as a blank control.
(§12) b) The cells were placed in 37° C. and 5% CO2 incubator for culture for 72 hours.
(§13) (5) Cell Viability Testing
(§14) a) The 96-well cell culture plate was taken out, and 20 μL of a CCK-8 reagent (Cell Counting Kit-8, Topscience, Catalog No. C0005) was added in the dark.
(§15) b) Mixing well was conducted on a horizontal shaking table at a room temperature at 100 rpm for 5 minutes.
(§16) c) The culture plate was placed in a 37° C. constant-temperature incubator for incubation.
d) Starting from the addition of the CCK-8, the absorbance at 450 nm was read using the TECAN microplate reader at 1 hour, 2 hours, and 3 hours, respectively.
(§17) The data was analyzed using GraphPad Prism 8.0 software to obtain a fitted curve of activity of the compounds. The IC50 of the compounds was fitted from nonlinear regression equation.

[3] = test system: A431 cells; assay: A431 cell proliferation inhibition (SRB); assay type: cell-based; details: Homo sapiens, A-431, wild-type EGFR, 72 hours
Procedure: A431 cell proliferation inhibition: The compounds of the present invention have good selectivity to wild-type EGFR
as §2, §3, §4, §5, §6, §7, §8, §9, §10, §11, §12, §13
a) The cell supernatant was discarded, rinsed once with 1×PBS, and fixed with 10% trichloroacetic acid for 1 hour. The trichloroacetic acid was discarded, excess trichloroacetic acid was washed off with tap water, and the 96-well plate was dried in a 60° C. oven.
b) 70 μL of an SRB stain was added to each well of the dry 96-well plate for staining at a room temperature for 30 minutes. Excess SRB stain was washed off with 1% glacial acetic acid, and the 96-well plate was dried in a 60° C. oven.
c) SRB was dissolved with 100 μL of 10 mM Tris-base solution. The absorbance was detected at 540 nm ultraviolet absorption using the microplate reader. The data was analyzed.
as §17

[4] = Detection of oral plasma exposure in rats; assay type: in vivo; details: rat, SD rats, p.o. 10 mg/kg
Procedure: Detection of oral plasma exposure in rats: The compounds of the present invention have good oral in-vivo exposure in rats
After a single dose of 10 mg/kg oral administration of the compound to be tested in SD rats, blood samples were collected at different time points.
Standard curve and quality control sample preparation processing: The mixed reserve solution of the compound to be tested was taken and diluted with 50% methanol water into standard working solutions containing respective compounds with concentrations of 20, 40, 100, 200, 400, 1000, 2000, 4000, 10000, and 20000 ng/mL, as well as 60, 600, and 16000 ng/mL quality control working solutions. […] of a blank matrix was taken. […] of the standard curve working solutions and the quality control working solutions were added to prepare standard curves containing respective compounds with concentrations of 1.00, 2.00, 5.00, 10.00, 20.00, 50.00, 100.00, 200.00, 500.00, and 1000.00 ng/mL, as well as quality control samples with concentrations of 3.00, 30.00, and 800.00 ng/mL, respectively. 400 μL of acetonitrile (containing internal standard Verpmil of 2 ng/mL) was added. After vortex oscillation at 700 rcf for 10 minutes, centrifugation was conducted at 3300 rcf at 4° C. for 10 minutes. The supernatant was taken for LC-MS/MS analysis.
Unknown sample preparation processing: 50 μL of the sample to be tested was taken. 400 μL of acetonitrile (containing internal standard Verpmil of 2 ng/mL) was added. After vortex oscillation at 700 rcf for 10 minutes, centrifugation was conducted at 3300 rcf and 4° C. for 10 minutes. The supernatant was taken for LC-MS/MS analysis.

[5] = test system: BaF3-EGFR^WT cells; assay: BaF3 cell proliferation inhibition experiment (CCK-8); assay type: cell-based; details: Mus musculus, BaF3; cell proliferation, 72 hours; read-out: BaF3-EGFR^WT (IC50 nM)
Procedure: as §1, §2, §3, §4, §5, §6, §7, §8, §9, §10, §11, §12, §13, §14, §15, §16, §17

[6] = test system: BaF3-EGFR^del19/T790M/C797S cells; assay: as above; assay type: cell-based; details: Ba/F3 EGFR-Del19/T790M/C797S; cell proliferation, 72 hours; read-out: BaF3-EGFR^del19 /T790M/C797S (IC50 nM)
Procedure: as §1, §2, §3, §4, §5, §6, §7, §8, §9, §10, §11, §12, §13, §14, §15, §16, §17

Chain of EGFR^L858R/T790M/C797S kinase (P00533 25-1210 T790M/C797S/L858R): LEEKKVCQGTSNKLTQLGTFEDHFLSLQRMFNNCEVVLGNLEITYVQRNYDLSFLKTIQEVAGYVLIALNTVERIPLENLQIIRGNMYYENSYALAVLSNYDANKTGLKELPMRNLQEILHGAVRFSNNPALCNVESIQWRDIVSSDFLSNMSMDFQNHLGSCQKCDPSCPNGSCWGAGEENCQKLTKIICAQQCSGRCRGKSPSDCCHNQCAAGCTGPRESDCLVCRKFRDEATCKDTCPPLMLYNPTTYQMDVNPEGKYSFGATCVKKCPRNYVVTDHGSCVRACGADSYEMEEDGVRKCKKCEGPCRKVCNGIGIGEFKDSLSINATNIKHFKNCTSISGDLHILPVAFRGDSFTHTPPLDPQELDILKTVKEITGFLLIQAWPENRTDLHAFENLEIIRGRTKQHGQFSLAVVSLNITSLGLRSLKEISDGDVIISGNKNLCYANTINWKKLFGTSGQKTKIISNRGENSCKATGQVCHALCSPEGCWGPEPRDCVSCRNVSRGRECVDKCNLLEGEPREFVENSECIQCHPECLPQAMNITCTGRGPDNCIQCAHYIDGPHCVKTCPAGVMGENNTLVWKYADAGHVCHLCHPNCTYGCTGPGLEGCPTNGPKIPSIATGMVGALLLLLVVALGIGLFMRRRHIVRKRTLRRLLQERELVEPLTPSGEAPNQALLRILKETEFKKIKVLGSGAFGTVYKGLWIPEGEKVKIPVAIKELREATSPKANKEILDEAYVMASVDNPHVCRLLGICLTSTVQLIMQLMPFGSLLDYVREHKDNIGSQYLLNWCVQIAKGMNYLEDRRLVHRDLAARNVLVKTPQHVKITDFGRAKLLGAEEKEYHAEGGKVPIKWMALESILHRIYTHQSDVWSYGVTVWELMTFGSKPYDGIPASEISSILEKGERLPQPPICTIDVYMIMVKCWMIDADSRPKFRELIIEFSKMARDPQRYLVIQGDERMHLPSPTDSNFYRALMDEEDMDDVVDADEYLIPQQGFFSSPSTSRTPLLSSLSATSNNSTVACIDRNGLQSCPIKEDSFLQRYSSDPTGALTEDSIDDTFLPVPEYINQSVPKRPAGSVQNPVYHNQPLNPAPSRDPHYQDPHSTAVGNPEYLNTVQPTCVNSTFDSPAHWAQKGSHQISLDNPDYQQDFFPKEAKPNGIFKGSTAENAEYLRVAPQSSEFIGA

pIC50 [1] | pIC50 [2] | pIC50 [3] | Cmax [4] [ng/mL] | IC50 [5] [nM] | IC50 [6] [nM] | SMILES
8.28 | 7.35 | < 6.30 | 1190 |  |  | COc1cc(N2CCC(N3CCN(C)CC3)CC2)c(C)cc1Nc1ncc(Cl)c(Nc2cc(C)c(C)cc2P(C)(C)=O)n1 [Compound 12, (2-((5-Chloro-2-((2-methoxy-5-methyl-4-(4-(4-methylpiperazin-1-yl)piperidin-1-yl)phenyl)amino)pyrimidin-4-yl)amino)-4,5-dimethylphenyl)dimethylphosphine oxide]
10.15 |  |  |  | 942 | 186 | CCc1cc(Nc2ncc(Cl)c(Nc3cc(C)c(C)cc3P(C)(C)=O)n2)c(OC)cc1N1CCC(N2C[C@@H](C)N(C)[C@@H](C)C2)CC1 [Compound 50, (2-((5-chloro-2-((5-ethyl-2-methoxy-4-(4-((3S,5R)-3,4,5-trimethylpiperazin-1-yl)piperidin-1-yl)phenyl)amino)pyrimidin-4-yl)amino)-4,5-dimethylphenyl)dimethylphosphine oxide]
10.43 | 6.63 | 6.22 |  | 353 | 92.8 | CCc1cc(Nc2ncc(Cl)c(Nc3ccc(C)c(C)c3P(C)(C)=O)n2)c(OC)cc1N1CCC(N2C[C@H]3CN(C)C[C@H]3C2)CC1 [Compound 52, (6-((5-Chloro-2-((5-ethyl-2-methoxy-4-(4-((3aR,6aS)-5-methyloctahydropyrrol[3,4-C]pyrrol-2(1H)-yl)piperidin-1-yl)phenyl)amino)pyrimidin-4-yl)amino)-2,3-dimethylphenyl)dimethylphosphine oxide]
9.53 | 7.31 | 6.15 |  |  |  | CCc1cc(Nc2ncc(Cl)c(Nc3ccc(C)c(C)c3P(C)(C)=O)n2)c(OC)cc1N1CCC2(CCN(C)CC2)CC1 [Compound 55, (6-((5-Chloro-2-((5-ethyl-2-methoxy-4-(9-methyl-3,9-diazaspiro[5.5]undecan-3-yl)phenyl)amino)pyrimidin-4-yl)amino)-2,3-dimethylphenyl)dimethylphosphine oxide]

More lines, now with the values behind:

SMILES | pIC50 [1] | pIC50 [2] | pIC50 [3] | Cmax [4] [ng/mL] | IC50 [5] [nM] | IC50 [6] [nM]
COc1cc(N2CCC3(CC2)CC(N(C)C)C3)c(Cl)cc1Nc1ncc(Cl)c(Nc2ccc(C)c(C)c2P(C)(C)=O)n1 [Compound 21, (6-((5-chloro-2-((5-chloro-4-(2-(dimethylamino)-7-azaspiro[3.5]nonan-7-yl)-2-methoxyphenyl)amino)pyrimidin-4-yl)amino)-2,3-dimethylphenyl)dimethylphosphine oxide] | 9.19 | 7.48 | < 6.30 |  |  | 
COc1cc(N2CCC3(CC2)CC(N(C)C)C3)c(C)cc1Nc1ncc(Cl)c(Nc2ccc(C)c(C)c2P(C)(C)=O)n1 [Compound 23, (6-((5-chloro-2-((4-(2-(dimethylamino)-7-azaspiro[3.5]nonan-7-yl)-2-methoxy-5-methylphenyl)amino)pyrimidin-4-yl)amino)-2,3-dimethylphenyl)dimethylphosphine oxide] | 9.11 | 7.41 | < 6.30 |  |  | 
COc1cc(N2CC3(CCN(C)CC3)C2)c(C)cc1Nc1ncc(Cl)c(Nc2ccc(C)c(C)c2P(C)(C)=O)n1 [Compound 32] | 9.04 | 7.26 | 6.02 |  |  | 
CCc1cc(Nc2ncc(Cl)c(Nc3ccc(C)c(C)c3P(C)(C)=O)n2)c(OC)cc1N1CCC2(CC1)CC(N1CCCC1)C2 [Compound 48, (6-((5-chloro-2-((5-ethyl-2-methoxy-4-(2-(pyrrolidin-1-yl)-7-azaspiro[3.5]nonan-7-yl)phenyl)amino)pyrimidin-4-yl)amino)-2,3-dimethylphenyl)dimethylphosphine oxide] | 10.20 |  |  |  | 634 | 176
